# Experimental data published in patent publication US11485728B2, “Small molecules for the treatment of autoimmune diseases and cancer” (Athos Therapeutics, Inc., priority 2020, dated 2022).
# Key:
# [1] = system: gut microbiome; test: Microbiome (shotgun metagenomic sequencing) of DSS-induced colitis mice; assay type: in vivo; details: for gut microbiome composition (in words): induced colitis conditions
# [2] = system: C57BL/6 mice; test: MTD studies in mice; assay type: in vivo
# [3] = system: colon tissue gene expression; test: Colon tissue gene expression (RNA-Seq) in TNBS-induced colitis mice; assay type: in vivo; details: for expression of genes related to inflammatory response: vs untreated
# Description: Method: TNBS colitis: C57BL/6 mice (20-22 grams) were fed ad lib and assigned to 4 different groups (n=8/group). After a 72 hr acclimation period the test group groups received 25 mg/kg of test compound PO (gavage) in vehicle daily. A control group received vehicle alone. After 24 hrs, mice were weighed and TNBS was injected intra-colonically using 5 cm of polyethylene (¼ inch) tubing. Mice were then treated with the test compounds and weighed daily for 4 days. Mice were sacrificed on day 4 and clinical score was assessed. Intestinal tissue for and blood were also collected. Tissues were either flash frozen and kept in −80° C. for RNA and protein isolation or placed in 10% formalin solution for future histological analysis. Blood was spun at 5K rpm for 5 min and serum was collected and kept at −20° C. for multiplex cytokine analysis.
# RNA Sequencing: RNA was extracted from mouse colon tissue at Athos Therapeutics and was sent at Zymo Research or the Technology Center for Genomics & Bioinformatics at UCLA for sequencing and partial bioinformatics analysis.
# Libraries for RNA-Seq were prepared with KAPA Stranded mRNA-Seq Kit. The workflow consists of mRNA enrichment and fragmentation, first strand cDNA synthesis using random priming, followed by second strand synthesis converting cDNA:RNA hybrid to double-stranded cDNA (dscDNA), and incorporates dUTP into the second cDNA strand. cDNA generation is followed by end repair to generate blunt ends, A-tailing, adaptor ligation, and PCR amplification. Different adaptors were used for multiplexing samples in one lane. Sequencing was performed on NovaSeq6000 (SP) for a PE 2×150 run. Data quality checking was done on Illumina SAV. Data de-multiplexing was performed with Illumina Bcl2fastq v 2.19.1.403 software. The reads were mapped by STAR 2.27a and read counts per gene were quantified using the mouse Ensembl Musmusculus.GRCm38.97 GTF file. In Partek Flow (Partek® Flow® software, v7.0 Copyright©. 2019 Partek Inc., St. Louis, Mo., USA) read counts were normalized by CPM +1.0E-4.
# Gene differential expression analysis and downstream gene enrichment analysis was performed at Athos Therapeutics. The DESeq2 R package was used for differential expression analysis. DESeq2 FDR cutoff: 0.05, DESeq2 Log 2FC cutoff: 1 (FC cutoff: 2). Gene enrichment analysis was performed using the Enrichr) (https://maayanlab.cloud/Enrichr/enrich) and gprofiler (https://biit.cs.ut.ee/gprofiler/gost) platforms.
# [4] = system: IL17; test: IL17 protein levels in human CD4 T cells (ELISA); assay type: cell-based
# Description: Naïve human CD4 T cells were cultured in DMEM supplemented with 10% heat-inactivated FBS, 2 mM glutamine, 100 U/ml penicillin, 100 μg/ml streptomycin and 25 mM Hepes. Human CD4 T cells were treated with anti-CD3 and anti-CD28 (100 ng/ml) together with small molecule compounds (500 nM) for 5 days. FoxP3 and CD4 positive cells were stained and imaged in a BD LSRII flow cytometer. The gated area represents the percentage CD4^highFoxP3^high immune cell population. Furthermore, the same small molecule compounds were evaluated for their effects on IL17 protein levels in human CD4 T cells by using an ELISA assay (R&D systems, cat no. D1700).
# [5] = system: J82; test: J82 bladder cancer cell viability (Real-Time-Glo); assay type: cell-based; details: Homo sapiens, 72 hr, read-out: IC50, Cell line: J82
# Description: To determine the plating density for cell viability assays, for each cell line, cells were counted and diluted to final densities of 2.5, 5, 10 and 20 thousand per 100 μl of their respective growth media per well in 96 well plates. A Promega Real-Time-Glo cell viability kit was used to determine the optimal concentration for cell plating so that each cell line would be within the linear part of its growth curve after 72 hrs in culture. For the determination of test compound IC50s different cancer cell lines were plated in 96 well plates in the pre-determined optimal density for each cell line. Test compounds were then added at different concentrations for the creation of six-point curve and cell density was determined using the Promega Real-Time-Glo cell viability kit after 24, 48, and 72 hrs in culture. Test compound 72 hr IC50s were calculated using the AAT Bioquest IC50 calculator.
# [6] = DSS colitis mice, 25 mg/kg PO daily, p<0.05
smiles,measurement,setting,value
"COc1cc2c(NC3CCS(=O)(=O)CC3)nc(N3CCC(F)(F)CC3)nc2cc1OCCCN1CCCC1 [Compound 1, 4-((2-(4,4-difluoropiperidin-1-yl)-6-methoxy-7-(3-(pyrrolidin-1-yl)propoxy)quinazolin-4-yl)amino)tetrahydro-2H-thiopyran 1,1-dioxide]",Bacteroidetes phylum abundance,[1]; [6],increase
same,Firmicutes phylum abundance,[1]; [6],significant decrease
same,Verrucomicrobia phylum abundance,[1]; [6],increase
same,gut microbiome composition (in words),[1],significantly altered the gut microbiome composition and shifted it towards eubiosis
same,effects in weight change (MTD studies),"[2]; mouse, in vivo, po",not cause any effects in weight change
"COc1cc2c(NC3CCN(C(C)C)CC3)nc(N3CCC(F)(F)CC3)nc2cc1OCCCN1CCCC1 [Compound 400, 2-(4,4-difluoropiperidin-1-yl)-N-(1-isopropylpiperidin-4-yl)-6-methoxy-7-(3-(pyrrolidin-1-yl)propoxy)quinazolin-4-amine, reference compound]",expression of genes related to inflammatory response,[3],did not have any effect
same,IL17 protein levels,[4],significantly suppresses
same,IC50,[5],5 to 10 µM
same,effects in weight change (MTD studies),[2]; 50 mg/kg daily oral,not cause any effects in weight change
"COc1cc2c(Nc3ccncc3)nc(N3CCC(F)(F)CC3)nc2cc1OCCCN1CCCC1 [Compound 7, 2-(4,4-difluoropiperidin-1-yl)-6-methoxy-N-(pyridin-4-yl)-7-(3-(pyrrolidin-1-yl)propoxy)quinazolin-4-amine]",IC50,[5],1 to 5 µM
"COc1cc2c(NC3CCOCC3)nc(N3CCC(F)(F)CC3)nc2cc1OCCCN1CCCC1 [Compound 2, 2-(4,4-difluoropiperidin-1-yl)-6-methoxy-7-(3-(pyrrolidin-1-yl)propoxy)-N-(tetrahydro-2H-pyran-4-yl)quinazolin-4-amine]",expression of TNF,[3],significantly reduced expression
same,expression of infliximab marker genes,[3],significantly reduced expression
same,expression of pro-inflammatory cytokine and metalloproteinase pathway genes (22-gene signature),[3],significantly reduced expression
same,number of inflammatory response genes with significantly reduced expression,[3],> 85 genes
same,Log2FC 1l6,[3]; treated vs untreated,−4.82
same,Log2FC Ccl2,[3]; treated vs untreated,−2.71
same,Log2FC Ccl3,[3]; treated vs untreated,−7.36
same,Log2FC Ccl7,[3]; treated vs untreated,−2.73
same,Log2FC Ccl9,[3]; treated vs untreated,−1.15
same,Log2FC Csf3,[3]; treated vs untreated,−6.66
same,Log2FC Csf3r,[3]; treated vs untreated,−3.19
same,Log2FC Cxcl1,[3]; treated vs untreated,−6.03
same,Log2FC Cxcl2,[3]; treated vs untreated,−8.30
same,Log2FC Cxcl3,[3]; treated vs untreated,−10.19
same,Log2FC Cxcl5,[3]; treated vs untreated,−6.57
same,Log2FC Il1a,[3]; treated vs untreated,−6.05
same,Log2FC Il1b,[3]; treated vs untreated,−6.17
same,Log2FC Il11,[3]; treated vs untreated,−4.05
same,Log2FC Il13ra2,[3]; treated vs untreated,−2.38
same,Log2FC Mmp3,[3]; treated vs untreated,−4.47
same,Log2FC Osm,[3]; treated vs untreated,−4.67
same,Log2FC Osmr,[3]; treated vs untreated,−1.24
same,Log2FC Ptgs2,[3]; treated vs untreated,−3.18
same,Log2FC Stc1,[3]; treated vs untreated,−1.89
same,Log2FC Tnfrsf11b,[3]; treated vs untreated,−1.66
same,expression of genes related to inflammatory response,[3],significantly reduced expression levels
same,IL17 protein levels,[4],do not have an effect
same,Bacteroidetes phylum abundance,[1]; [6],increase
same,Proteobacteria phylum abundance,[1]; [6],increase
same,gut microbiome composition (in words),[1],significantly altered the gut microbiome composition and shifted it towards eubiosis
